Values quoted from earlier work, collected in US10668130B2, “Formulation for targeting cancer in humans and canines using chlorotoxin” (priority 2017, dated 2020).

Columns and labels:
[1] = test system: volume-regulated Cl— channels; settings: sub-micromolar concentrations
[2] = test system: Ca2+-activated Cl— channels; settings: sub-micromolar concentrations
[3] = test system: outwardly rectifying Cl— channels; settings: planar lipid bilayers
CFTR Cl— channels = CFTR Cl— channels (Homo sapiens, UniProt P13569); settings: sub-micromolar concentrations
CFTR Cl— channels, sequence (P13569 whole entry): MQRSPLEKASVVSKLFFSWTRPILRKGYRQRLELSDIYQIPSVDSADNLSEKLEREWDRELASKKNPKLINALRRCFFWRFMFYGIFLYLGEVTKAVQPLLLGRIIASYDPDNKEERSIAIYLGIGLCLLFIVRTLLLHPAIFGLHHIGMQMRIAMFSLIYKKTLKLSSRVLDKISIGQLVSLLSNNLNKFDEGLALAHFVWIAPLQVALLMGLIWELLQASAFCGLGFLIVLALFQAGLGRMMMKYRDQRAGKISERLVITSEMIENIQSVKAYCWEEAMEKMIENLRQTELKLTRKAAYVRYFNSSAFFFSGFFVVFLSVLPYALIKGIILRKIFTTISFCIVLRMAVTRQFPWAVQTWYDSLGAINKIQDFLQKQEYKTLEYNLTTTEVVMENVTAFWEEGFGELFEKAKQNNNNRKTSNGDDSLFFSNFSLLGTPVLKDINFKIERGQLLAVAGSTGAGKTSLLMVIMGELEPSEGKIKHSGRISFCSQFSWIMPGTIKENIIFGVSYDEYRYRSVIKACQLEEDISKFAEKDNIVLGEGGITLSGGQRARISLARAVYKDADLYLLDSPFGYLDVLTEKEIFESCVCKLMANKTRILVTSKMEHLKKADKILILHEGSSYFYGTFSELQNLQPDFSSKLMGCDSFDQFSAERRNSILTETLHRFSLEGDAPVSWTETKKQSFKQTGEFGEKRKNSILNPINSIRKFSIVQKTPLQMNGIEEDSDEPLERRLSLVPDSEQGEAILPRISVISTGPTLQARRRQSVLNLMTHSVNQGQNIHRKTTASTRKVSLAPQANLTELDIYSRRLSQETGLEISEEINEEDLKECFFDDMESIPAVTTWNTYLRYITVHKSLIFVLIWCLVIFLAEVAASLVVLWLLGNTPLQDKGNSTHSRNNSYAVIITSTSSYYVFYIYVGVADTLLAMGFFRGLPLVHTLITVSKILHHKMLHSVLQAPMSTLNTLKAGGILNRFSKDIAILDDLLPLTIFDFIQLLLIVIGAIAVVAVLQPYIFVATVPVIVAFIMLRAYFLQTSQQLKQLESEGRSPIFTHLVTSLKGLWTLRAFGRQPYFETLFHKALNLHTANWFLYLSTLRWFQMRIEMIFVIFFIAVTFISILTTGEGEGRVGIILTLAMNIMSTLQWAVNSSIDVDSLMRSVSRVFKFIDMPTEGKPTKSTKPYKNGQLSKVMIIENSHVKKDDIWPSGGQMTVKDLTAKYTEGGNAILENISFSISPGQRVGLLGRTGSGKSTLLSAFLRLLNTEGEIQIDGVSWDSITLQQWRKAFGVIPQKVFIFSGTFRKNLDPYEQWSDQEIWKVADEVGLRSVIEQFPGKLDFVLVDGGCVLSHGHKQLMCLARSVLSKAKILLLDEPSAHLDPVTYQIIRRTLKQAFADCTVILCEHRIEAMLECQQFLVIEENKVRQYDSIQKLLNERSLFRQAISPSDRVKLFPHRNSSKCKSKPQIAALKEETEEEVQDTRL

chlorotoxin
effect on volume-regulated Cl— channels [1]: without effect
effect on Ca2+-activated Cl— channels [2]: without effect
effect on outwardly rectifying Cl— channels [3]: inhibited
effect on CFTR Cl— channels (CFTR Cl— channels): without effect
